PMC6010021, “Mono- and di-thiocarbamate inhibition studies of the δ-carbonic anhydrase TweCAδ from the marine diatom Thalassiosira weissflogii” (Journal of Enzyme Inhibition and Medicinal Chemistry, 2018)

Target: T1, TweCAδ (Conticribra weissflogii, UniProt Q5U9J1)
T1 construct: gene ca1; recombinant protein produced as reported earlier by the group
T1 sequence (Q5U9J1 1-281): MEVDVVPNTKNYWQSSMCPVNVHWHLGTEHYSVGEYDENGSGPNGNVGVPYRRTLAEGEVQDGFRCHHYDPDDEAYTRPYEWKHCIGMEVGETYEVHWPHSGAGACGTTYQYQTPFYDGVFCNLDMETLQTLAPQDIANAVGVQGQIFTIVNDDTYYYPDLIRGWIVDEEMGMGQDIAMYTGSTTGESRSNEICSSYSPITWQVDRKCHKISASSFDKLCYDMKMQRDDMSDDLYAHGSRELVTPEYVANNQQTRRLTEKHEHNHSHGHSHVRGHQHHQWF
Assay: stopped-flow CO2 hydrase assay
Type: biochemical
Conditions: read-out: RR^1NCS2M (16-36) / KI (nM)^a / TweCAδ

| SMILES | Ki [nM] |
| --- | --- |
| CCCCN(CC)C(=O)S [compound 2, MTC 2] | 783 |
| CCOC(=O)CN(C)C(=O)S [compound 5, MTC 5] | > 20000 |
| O=C(S)NCCc1ccccc1 [compound 11, MTC 11] | 997 |
| CCCCN(CCCC)C(=O)S [compound 3, MTC 3] | 1140 |
| CCCN(CCC)C(=O)S [compound 1, MTC 1] | 807 |
| NS(=O)(=O)c1ccc(CCNC(=S)S)cc1 [compound 36, DTC 36] | 704 |
| OCCCCNC(=S)S [compound 18, DTC 18] | 7170 |
| S=C(S)N1CCCCC1 [compound 23, DTC 23] | > 20000 |
| OCCCNC(=S)S [compound 17, DTC 17] | 8690 |
| O=C(S)N1CCN(c2ccc(C(F)(F)F)cc2)CC1 [compound 15, MTC 15] | 1150 |
| CN(Cc1ccccc1)C(=O)S [compound 10, MTC 10] | > 20000 |
| CC(C)CN(CC(C)C)C(=O)S [compound 4, MTC 4] | > 20000 |
| OCCCCCNC(=S)S [compound 19, DTC 19] | 8600 |
| CN(C)CCNC(=S)S [compound 16, DTC 16] | 8410 |
| O=C(S)N1CCN(c2ccc(F)cc2)CC1 [compound 14, MTC 14] | 1500 |
| S=C(S)NCCc1ccccc1 [compound 35, DTC 35] | 897 |
| COc1ccc(CCNC(=O)S)cc1OC [compound 12, MTC 12] | 67.7 |
| O=C(S)N1CCN(c2cccc(Cl)c2)CC1 [compound 13, MTC 13] | 1510 |

The remaining lines, values ahead:

| Ki [nM] | SMILES |
| --- | --- |
| > 20000 | OC1CCCN(C(=S)S)C1 (stereo not shown) [compound 24, DTC 24] |
| 783 | CC(=O)NC1CCCN(C(=S)S)C1 (stereo not shown) [compound 30, DTC 30] |
| > 20000 | S=C(S)NC1CN2CCC1CC2 (stereo not shown) [compound 20, DTC 20] |
| 791 | O=C(CN1CCN(C(=S)S)CC1)NC1CCCCC1 [compound 34, DTC 34] |
| > 20000 | O=C(S)N1CCOCC1 [compound 6, MTC 6] |
| 7990 | S=C(S)N[C@@H]1CN2CCC1CC2 [compound 22, DTC 22] |
| > 20000 | S=C(S)N[C@H]1CN2CCC1CC2 [compound 21, DTC 21] |
| > 20000 | O=C(O)C1CCCCN1C(=S)S (stereo not shown) [compound 25, DTC 25] |
| > 20000 | O=C(O)C1COCCN1C(=S)S (stereo not shown) [compound 33, DTC 33] |
| 556 | O=C(O)[C@H]1CCCN(C(=S)S)C1 [compound 28, DTC 28] |
| 93.6 | O=C(O)[C@@H]1CCCN(C(=S)S)C1 [compound 27, DTC 27] |
| 8430 | O=C(O)C1CCCN(C(=S)S)C1 (stereo not shown) [compound 26, DTC 26] |
| 129 | O=C(CN1CCN(C(=O)S)CC1)NC1CCCCC1 [compound 9, MTC 9] |
| 487 | CN1CCN(NC(=O)S)CC1 [compound 7, MTC 7] |
| 8980 | O=C(O)C1CCN(C(=S)S)CC1 [compound 29, DTC 29] |
| > 20000 | CC1COCCN1C(=S)S (stereo not shown) [compound 32, DTC 32] |
